Assay results published in PMC8961538, “N-Acylated and N-Alkylated 2-Aminobenzothiazoles Are Novel Agents That Suppress the Generation of Prostaglandin E2” (Biomolecules, 2022).

Assays:
[1] = test system: PGE2 generation in rat mesangial cells; assay: Suppression of IL-1β/forskolin-stimulated PGE2 generation in rat renal mesangial cells; type: cell-based; settings: for inhibition at 3 µM / IC50: Rattus norvegicus, Mesangial cell; for IC50: IL-1β plus forskolin, read-out: EC50 (μM), inhibition of PGE2 generation
Method: Rat renal mesangial cells (clone MZ B1), isolated and characterized as previously described, were cultivated in RPMI 1640 medium supplemented with 10% fetal bovine serum; 10 mM 4-(2-hydroxyethyl)-1-piperazineethanesulfonic acid (HEPES), pH 7.4; 6 µg/mL of bovine insulin; 5 µg/mL of transferrin; 5 nM sodium selenite; 100 units/mL of penicillin; and 100 µg/mL of streptomycin. The cells were incubated for 4 h in Dulbecco’s modified Eagle’s medium (DMEM) containing 10 mM HEPES, pH 7.4, and 0.1 mg/mL of fatty acid-free bovine serum albumin (BSA), prior to stimulation.
Confluent mesangial cells in 24-well plates were pretreated for 20 min with varying concentrations of inhibitors and then stimulated for 24 h in a total volume of 400 µL of DMEM containing 0.1 mg/mL of BSA, in the absence or presence of 1 nM interleukin 1β (IL-1) plus 5 μM forskolin (Fk). Thereafter, the supernatants were collected and centrifuged for 5 min at 1000× g. The PGE2 in the supernatant was quantified using an enzyme-linked immunoassay (Enzo Life Sciences, Lörrach, Germany) following the manufacturer’s recommendations.
Statistical analysis of the data was performed using one-way analysis of variance (ANOVA) followed by a Bonferroni’s post hoc test for multiple comparisons (GraphPad Prism 8.4.3., San Diego, CA, USA). The half maximal effective concentrations (EC50) of the inhibitors were calculated using the same software.

[2] = test system: rat-paw carrageenan-induced edema; assay: Rat-paw carrageenan-induced-edema assay; type: in vivo; settings: for In vivo anti-inflammatory activity compared with indomethacin: 0.01 mmol/kg, same dose as indomethacin
Method: The anti-inflammatory activities of selected aminobenzothiazole derivatives were determined by employing the rat-paw carrageenan-induced-edema assay, as previously described. Only male animals (180–220 g body weight) were used. Each group was composed of five animals. The animals were divided into three five-membered groups, and all the tested compounds were suspended in water (0.01 mmol/mL/kg body weight), with a few drops of Tween 80, and ground in a mortar before being administered intraperitoneally simultaneously. After treatment with the tested compounds in group 1, a 2nd group was used as a positive control (indomethacin at 0.01 mmol/mL/kg body weight, i.p.), and another group (3rd) served as the control in which water was administered (negative control). The compounds were injected intraperitoneally at the same time as carrageenan was given by intradermal injection. The rats were euthanized 3.5 h post-injection. The weight of the uninjected with carrageenan paw was subtracted from the weight of the injected paw for each animal. The change in paw weight for the treated animals was compared to that for the control animals and expressed as the percent inhibition of edema. The values of CPE % are the means from three different experiments with standard errors of the mean less than 10%. The statistical significance of the results was established with Student’s t-test, for * p < 0.01 and ** p < 0.05. All the animal experiments performed in the manuscript were conducted in compliance with institutional guidelines. Our studies were in accordance with recognized guidelines on animal experimentation (guidelines for the care and use of laboratory animals published by the Greek Government 160/1991, based on EU regulations 86/609). The rats were kept in the Centre of the School of Veterinary Medicine (EL54 BIO42), Aristotle University of Thessaloniki, which is registered by the official state veterinary authorities (presidential degree 56/2013, in harmonization with the European Directive 2010/63/EEC). The experimental protocols were approved by the Animal Ethics Committee of the Prefecture of Central Macedonia (no. 270079/2500).

[3] = 24 h, 3 μM, 1 nM IL-1β plus 5 μM forskolin

| melting point | SMILES | inhibition at 3 µM [1, 3] | other results |
| --- | --- | --- | --- |
| 49 to 51 °C | O=C(CCc1ccc2ccccc2c1)Nc1nc2ccccc2o1 [Compound 5c, N-(Benzo[d]Oxazol-2-yl)-3-(Naphthalen-2-yl)Propanamide] | 49% | – |
| 104 to 106 °C | COc1ccc(CCCNc2nc3ccccc3s2)cc1 [Compound 19c, N-(3-(4-Methoxyphenyl)Propyl)Benzo[d]Thiazol-2-Amine] | 62% | – |
| 141 to 143 °C | COc1ccc(COC(=O)Nc2nc3ccccc3s2)cc1 [Compound 16a, 4-Methoxybenzyl Benzo[d]Thiazol-2-ylcarbamate] | 15% | – |
| 52 to 55 °C | O=C(CCCc1ccc2ccccc2c1)Nc1nc2ccccc2o1 [Compound 5d, N-(Benzo[d]Oxazol-2-yl)-4-(Naphthalen-2-yl)Butanamide] | 73% | – |
| 100 to 102 °C | COC(CCc1cccc2ccccc12)Nc1nc2ccc(OC(F)(F)F)cc2s1 (centres unmarked) [Compound 18h, N-(1-Methoxy-3-(Naphthalen-1-yl)Propyl)-6-(Trifluoromethoxy)Benzo[d]Thiazol-2-Amine] | – | – |
| 170 to 173 °C | c1ccc2c(OCCNc3nc4ccccc4s3)cccc2c1 [Compound 25b, N-(2-(Naphthalen-1-yloxy)Ethyl)Benzo[d]Thiazol-2-Amine] | 57% | – |
| 170 to 172 °C | c1ccc2cc(OCCNc3nc4ccccc4s3)ccc2c1 [Compound 25a, N-(2-(Naphthalen-2-yloxy)Ethyl)Benzo[d]Thiazol-2-Amine] | 63% | – |
| – | COC(CCc1ccc2ccccc2c1)Nc1nc2ccccc2s1 (centres unmarked) [Compound 18a, N-(1-Methoxy-3-(Naphthalen-2-yl)Propyl)Benzo[d]Thiazol-2-Amine] | 46% | – |
| 172 to 174 °C | COc1ccc(CCC(=O)Nc2nc3ccccc3s2)cc1 [Compound 11, N-(Benzo[d]Thiazol-2-yl)-3-(4-Methoxyphenyl)Propanamide] | > 80% | IC50 ([1]; 0.1 to 3 µM, 24 h): 0.916 µM |
| 53 to 55 °C | O=C(CCCc1ccc2ccccc2c1)Nc1nc2ccccc2s1 [Compound 5a, N-(Benzo[d]Thiazol-2-yl)-4-(Naphthalen-2-yl)Butanamide] | 50% | – |
| 115 to 116 °C | FC(F)(F)Oc1ccc2nc(NCCCc3cccc4ccccc34)sc2c1 [Compound 19h, N-(3-(Naphthalen-1-yl)Propyl)-6-(Trifluoromethoxy)Benzo[d]Thiazol-2-Amine] | 0% | – |
| – | COc1ccc2c(c1)c(CC(=O)O)c(C)n2C(=O)c1ccc(Cl)cc1 [Indomethacin, reference compound] | – | % Reduction of Rat-Paw Edema ([2]; 0.01 mmol/kg i.p., given with carrageenan, 3.5 h post-injection): 37.3% |
| 228 to 230 °C | O=C(/C=C/c1ccc2ccccc2c1)Nc1nc2ccccc2s1 [Compound 9a, (E)-N-(Benzo[d]Thiazol-2-yl)-3-(Naphthalen-2-yl)Acrylamide] | 28% | – |
| 152 to 153 °C | c1ccc2cc(OCCNc3nc4ccccc4o3)ccc2c1 [Compound 23c, N-(2-(Naphthalen-2-yloxy)Ethyl)Benzo[d]Oxazol-2-Amine] | > 80% | IC50 ([1]; 0.1 to 3 µM, 24 h): 0.894 µM |
| 85 to 87 °C | COc1ccc(CCCNc2nc3ccccc3o2)cc1 [Compound 23b, N-(3-(4-Methoxyphenyl)Propyl)Benzo[d]Oxazol-2-Amine] | 79% | – |
| 46 to 48 °C | O=C(CCc1ccc2ccccc2c1)Nc1nc2ccccc2s1 [Compound 5b, N-(Benzo[d]Thiazol-2-yl)-3-(Naphthalen-2-yl)Propanamide] | > 80% | IC50 ([1]; 0.1 to 3 µM, 24 h): 0.173 µM; In vivo anti-inflammatory activity compared with indomethacin [2]: higher than that of indomethacin; In vivo anti-inflammatory activity compared with indomethacin ([2]; listed as GK510): greater than that of indomethacin |

| melting point | SMILES | inhibition at 3 µM [1, 3] | other results |
| --- | --- | --- | --- |
| 164 to 166 °C | c1ccc2c(OCCNc3nc4ccccc4o3)cccc2c1 [Compound 23d, N-(2-(Naphthalen-1-yloxy)Ethyl)Benzo[d]Oxazol-2-Amine] | 45% | – |
| 56 to 58 °C | O=C(CCCc1ccc2ccccc2c1)Nc1nc2ccccc2[nH]1 [Compound 5f, N-(1H-Benzo[d]Imidazol-2-yl)-4-(Naphthalen-2-yl)Butanamide] | 66% | – |
| 252 to 254 °C | COc1ccc(/C=C/C(=O)Nc2nc3ccccc3s2)cc1 [Compound 9b, (E)-N-(Benzo[d]Thiazol-2-yl)-3-(4-Methoxyphenyl)Acrylamide] | 25% | – |
| 99 to 102 °C | c1ccc(CCCNc2nc3ccccc3s2)cc1 [Compound 19b, N-(3-Phenylpropyl)Benzo[d]Thiazol-2-Amine] | > 80% | IC50 ([1]; 0.1 to 3 µM, 24 h): 0.177 µM |
| 153 to 155 °C | O=C(COc1ccc2ccccc2c1)Nc1nc2ccccc2s1 [Compound 7, N-(Benzo[d]Thiazol-2-yl)-2-(Naphthalen-2-yloxy)Acetamide] | 41% | – |
| 209 to 211 °C | O=C(Nc1nc2ccccc2s1)OCc1ccc2ccccc2c1 [Compound 16b, Naphthalen-2-ylmethyl Benzo[d]Thiazol-2-ylcarbamate] | 39% | – |
| 134 to 137 °C | c1ccc2c(CCCNc3nc4ccccc4s3)cccc2c1 [Compound 19d, N-(3-(Naphthalen-1-yl)Propyl)Benzo[d]Thiazol-2-Amine] | > 80% | IC50 ([1]; 0.1 to 3 µM, 24 h): 0.399 µM |
| 94 to 97 °C | c1ccc2c(CCCNc3nccs3)cccc2c1 [Compound 19e, N-(3-(Naphthalen-1-yl)Propyl)Thiazol-2-Amine] | > 80% | Concentration dependence of effect on PGE2 generation ([1]; 0.1 to 3 µM, low concentrations enhanced PGE2, 1 µM and 3 µM reduced it): biphasic effect |
| 128 to 130 °C | c1ccc2cc(CCCNc3nc4ccccc4o3)ccc2c1 [Compound 23a, N-(3-(Naphthalen-2-yl)Propyl)Benzo[d]Oxazol-2-Amine] | > 80% | IC50 ([1]; 0.1 to 3 µM, 24 h): 0.336 µM |
| 78 to 80 °C | COC(CCc1ccc2ccccc2c1)Nc1nc2ccc(OC(F)(F)F)cc2s1 (centres unmarked) [Compound 18g, N-(1-Methoxy-3-(Naphthalen-2-yl)Propyl)-6-(Trifluoromethoxy)Benzo[d]Thiazol-2-Amine] | – | – |
| 48 to 50 °C | O=C(NCCCc1ccc2ccccc2c1)c1nc2ccccc2s1 [Compound 14, N-(3-(Naphthalen-2-yl)Propyl)Benzo[d]Thiazole-2-Carboxamide] | 64% | – |
| – | COc1ccc(CCC(Nc2nc3ccccc3s2)OC)cc1 (centres unmarked) [Compound 18c, N-(1-Methoxy-3-(4-Methoxyphenyl)Propyl)Benzo[d]Thiazol-2-Amine] | 0% | – |
| 150 to 152 °C | FC(F)(F)Oc1ccc2nc(NCCCc3ccc4ccccc4c3)sc2c1 [Compound 19g, N-(3-(Naphthalen-2-yl)Propyl)-6-(Trifluoromethoxy)Benzo[d]Thiazol-2-Amine] | 0% | % Inhibition (at 3 μM) of PGE2 generation ([1]; 3 μM, 1 nM IL-1β plus 5 μM forskolin, 24 h, listed as 19): inactive |
| 83 to 84 °C | c1ccc(CCCNc2nccs2)cc1 [Compound 19f, N-(3-Phenylpropyl)Thiazol-2-Amine] | 20% | – |
| – | COC(CCc1ccccc1)Nc1nc2ccccc2s1 (centres unmarked) [Compound 18b, N-(1-Methoxy-3-Phenylpropyl)Benzo[d]Thiazol-2-Amine] | 0% | – |
| 47 to 49 °C | O=C(CCc1ccc2ccccc2c1)Nc1nc2ccccc2[nH]1 [Compound 5e, N-(1H-Benzo[d]Imidazol-2-yl)-3-(Naphthalen-2-yl)Propanamide] | 29% | – |
